Our source for the IC50 values is the supplement of paper PMC3493320.

The subject of the experiment is NCI-H295R. As to the kind of experiment: IC50 (antiproliferative, ATP content). To be noted: 48 h. In a few lines: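 Compounds were pin-transferred at 8 final concentrations between 0.6 nM and 46 µM onto adrenocortical carcinoma cells (1500 per well, 1536-well plates) that had been cultured overnight in serum-free DMEM with ITS. Plates then stood 48 h at 37 °C, 5% CO2, and ATP was detected by CellTiter-Glo luminescence. IC50 was derived from logistic fits of normalised signal, and compounds giving no concentration response were noted as above the top dose.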
By IC50 is commonly meant the midpoint of a concentration-inhibition curve. A low value points to greater potency. The molecule `O.O=S(=O)([O-])CC(S)CS.[Na+]` (centres undefined) returned an IC50 of more than 46 µM.

With `CCN(CC)CC1CCCCN1CC(=O)N1c2ccccc2C(=O)Nc2cccnc21` (centres undefined), the half-maximal inhibitory concentration (IC50) was more than 46 µM.

In turn, `CN1C[C@@H]2C[C@H]1CN2c1cc2c(cc1F)c(=O)c(C(=O)O)cn2C1CC1` displayed a half-maximal inhibitory concentration (IC50) of more than 46 µM.

`O=C(O[C@@H]5C4CCN(C5)CC4)N2[C@@H]([C@]3=CC=CC=C3)C1=CC=CC=C1CC2.Cl`: the IC50 was more than 46 µM.

For the molecule `CC(C)c1ncc([N+](=O)[O-])n1C`, the IC50 was more than 46 µM.

`CCC(N)Cc1c[nH]c2ccccc12` (centres undefined) returned an IC50 of more than 46 µM.

For `CCCNC(C)C(=O)Nc1ccccc1C.Cl` (centres undefined), the IC50 was more than 46 µM.

For `CC(=O)[C@H]2CC[C@H]3[C@@H]4\C=C/C1=C/C(=O)CC[C@@]1(C)[C@@H]4CC[C@]23C`, the half-maximal inhibitory concentration (IC50) was more than 46 µM.

`CCN1CCCC1=O` yielded an IC50 of more than 46 µM.

As to `CC(C)CCC[C@@H](C)[C@H]1CC[C@H]2[C@@H]3CC[C@@H]4C[C@H](O)CC[C@]4(C)[C@H]3CC[C@]12C`, the IC50 was more than 46 µM.

Regarding `CCCc1nn(C)c2c(=O)[nH]c(-c3cc(S(=O)(=O)N4CCN(C)CC4)ccc3OCC)nc12.O=C(O)CC(O)(CC(=O)O)C(=O)O`, the IC50 was more than 46 µM.

For the molecule `C[C@]12CC[C@@H]3c4ccc(O)cc4CC[C@H]3[C@@H]1CC[C@@H]2OP(=O)(O)O`, the IC50 was more than 46 µM.

Take `C[C@H]1c2cccc(O)c2C(=O)C2=C(O)[C@]3(O)C(=O)C(C(N)=O)=C(O)[C@@H](N(C)C)[C@@H]3[C@@H](O)[C@@H]21.Cl`: the half-maximal inhibitory concentration (IC50) was more than 46 µM.

On to `CCN(CC)CCOc1ccccc1C(=O)CCc1ccccc1`, for which the half-maximal inhibitory concentration (IC50) was more than 46 µM.

`C[C@@H](N)C(=O)O` gave an IC50 of more than 46 µM.

As to `CCCC(C)C1(CC)C(=O)N=C(O)NC1=O` (centres undefined), the IC50 was more than 46 µM.

Turning to `CC[N+](C)(CC)CCOC(=O)C(O)(c1ccccc1)C1CCCCC1.[Br-]` (centres undefined), the IC50 is more than 46 µM.

With `ClC3=C(C=CC5=C3)OC1=CC([C@@](C(N[C@@](C8=CC%11=C(O)C=C8)([H])C(N[C@H]([C@](N[C@@H]([C@@](O)=O)C%12=C%11C(O[C@H]%13O[C@H](CO)[C@@H](O)[C@H](O)[C@@H]%13O)=CC(O)=C%12)=O)[C@@H]5O[C@@]6([H])[C@H](NC(C)=O)[C@@H](O)[C@H](O)[C@@H](CO)O6)=O)=O)([H])NC([C@@](C9=CC(O)=CC(OC%10=C(O)C=CC([C@@H]%14N)=C%10)=C9)([H])NC([C@H](NC%14=O)C7)=O)=O)=CC(OC4=CC=C7C=C4Cl)=C1O[C@H]2[C@H](NC(CC\C=C/CCCCC)=O)[C@@H](O)[C@H](O)[C@@H](CO)O2`, the IC50 is more than 46 µM.

Molecule `O=[C@](OCC2=COC(CC3=CC=CC=C3)=C2)[C@H]1C(C)(C)[C@@H]1\C=C(C)/C` displayed an IC50 of more than 46 µM.

The molecule `Cc1cc2cc3c(C)cc(=O)oc3c(C)c2o1` showed an IC50 of more than 46 µM.

In turn, `CCOC(=O)Nc1ccc2c(c1)N(C(=O)CCN1CCOCC1)c1ccccc1S2.Cl` yielded an IC50 of more than 46 µM.

For the molecule `O=C(Cn1ccnc1[N+](=O)[O-])NCCO`, the IC50 was more than 46 µM.

Regarding `COc1cc(C)nc(-n2nc(C)cc2OC)n1`, the IC50 is more than 46 µM.

`Cc1cccc(C)c1NC(=O)C(C)N.Cl` (centres undefined): the IC50 is more than 46 µM.

In turn, `COc1ccc(-c2cc(=O)c3c(O)cc(O[C@@H]4O[C@H](CO[C@@H]5O[C@@H](C)[C@H](O)[C@@H](O)[C@H]5O)[C@@H](O)[C@H](O)[C@H]4O)cc3o2)cc1O` gave an IC50 of more than 46 µM.

In turn, `CCC(=O)O.CCC(=O)O.O=C(Nc1cccc(C2=NCCN2)c1)Nc1cccc(C2=NCCN2)c1` came in with an IC50 of more than 46 µM.

In turn, `CN1C(=O)[C@@H](NC(=O)c2cc3ccccc3[nH]2)N=C(c2ccccc2)c2ccccc21` yielded a concentration for half-maximal inhibition (IC50) of more than 46 µM.

`N/C(N)=N/C1=NC(CSCCC(N)=NS(N)(=O)=O)=CS1` registered a half-inhibitory concentration (IC50) of more than 46 µM.

Take `COc1ccc(-c2cc(=S)ss2)cc1`: the IC50 is more than 46 µM.

The molecule `CN(C)CC\C2=C\Nc1ccc(cc12)Cn3cncn3` showed an IC50 of more than 46 µM.

Molecule `CCN(CC)CCNC(=O)c1ccc(NC(C)=O)cc1.Cl` displayed a concentration for half-maximal inhibition (IC50) of more than 46 µM.

As for `C=C1CC[C@@H]2[C@](C)(CO)[C@H](O)CC[C@@]2(C)[C@@H]1C/C=C1/C(=O)OC[C@H]1O`, the IC50 was more than 46 µM.

`COc1ccccc1N1CCN(CCCC(=O)c2ccc(F)cc2)CC1` came in with an IC50 of more than 46 µM.

In the case of `CCCN(CCC)CCc1cccc2c1CC(=O)N2`, the IC50 is more than 46 µM.

In turn, `CC(C)(CO)[C@@H](O)C(=O)NCCCC(=O)[O-].CC(C)(CO)[C@@H](O)C(=O)NCCCC(=O)[O-].[Ca+2]` yielded a half-maximal inhibitory concentration (IC50) of more than 46 µM.

`CC(C)(C)NC[C@H](O)COc1nsnc1N1CCOCC1` showed an IC50 of more than 46 µM.

With `CCCOC(=O)c1ccc(N)cc1`, the IC50 was more than 46 µM.

Molecule `COC(F)(F)C(Cl)Cl` displayed a half-inhibitory concentration (IC50) of more than 46 µM.

`CN1CCN(C(=O)O[C@H]2c3nccnc3C(=O)N2c2ccc(Cl)cn2)CC1`: the IC50 was more than 46 µM.

Molecule `Cl.O=C(O)c1cn(C2CC2)c2cc(N3CCNCC3)c(F)cc2c1=O` displayed an IC50 of more than 46 µM.

Turning to `CCC(=O)NCC[C@@H]1CCc2ccc3c(c21)CCO3`, the half-maximal inhibitory concentration (IC50) was more than 46 µM.

For the molecule `CCCCCCCCCCCCCCCCCCCCCC(=O)Nc1ccn([C@@H]2O[C@H](CO)[C@@H](O)[C@@H]2O)c(=O)n1`, the IC50 was more than 46 µM.

For `O=[C@@](OCC2=CC=CC(OC3=CC=CC=C3)=C2)[C@H]1C(C)(C)C1/C=C(C)/C` (some centres undefined), the IC50 is more than 46 µM.

Molecule `CNCCCC1c2ccccc2C=Cc2ccccc21.Cl` had an IC50 of more than 46 µM.

The molecule `COC(=O)C(CN)c1c[nH]c2ccc(OC)cc12.Cl` (centres undefined) yielded an IC50 of more than 46 µM.

Consider `CNCc1ccccc1.Cl`, for which the IC50 is more than 46 µM.

`Cc1cccc(Nc2cc(Cl)nc(SCC(=O)O)n2)c1C` registered a half-maximal inhibitory concentration (IC50) of more than 46 µM.

`NS(=O)(=O)c1ccc(NC(=O)CCC(=O)O)cc1` showed an IC50 of more than 46 µM.

`O=C1O[C@@H]3CCN2C\C=C(\COC(=O)[C@](C)(O)[C@](C)(O)[C@H]1C)[C@@H]23` had an IC50 of more than 46 µM.

`CC(=O)Oc1cc(C(C)C)c(OCCN(C)C)cc1C.Cl` had an IC50 of more than 46 µM.

Regarding `CC[N+](CC)(CC)CCOc1cccc(OCC[N+](CC)(CC)CC)c1OCC[N+](CC)(CC)CC.[I-].[I-].[I-]`, the IC50 is more than 46 µM.

Molecule `CCN[C@H]1CN(CCCOC)S(=O)(=O)c2sc(S(N)(=O)=O)cc21` came in with an IC50 of more than 46 µM.

Turning to `CCCCC(CC)COC(=O)CC(C(=O)OCC(CC)CCCC)S(=O)(=O)[O-].[Na+]` (centres undefined), the 50% inhibitory concentration (IC50) is more than 46 µM.

Regarding `CC(C)O`, the IC50 is more than 46 µM.

`Cc1cnc(NC(=O)C2=C(O)c3ccccc3S(=O)(=O)N2C)s1` showed an IC50 of more than 46 µM.

`Oc1ccc(Cl)c2c1CCC2`: the IC50 was more than 46 µM.

The molecule `CC(C)(Oc1ccc(Cl)cc1)C(=O)O` yielded an IC50 of more than 46 µM.

Regarding `Oc1c(Br)cc(Br)cc1Br`, the IC50 is more than 46 µM.

As for `O=c1cc(O)c(Cl)c[nH]1`, the IC50 is more than 46 µM.

`OC[C@H]1OC(O)[C@H](O)[C@@H](O)[C@H]1O` (some centres undefined) had an IC50 of more than 46 µM.

On to `OB(O)O`, for which the IC50 is more than 46 µM.

Molecule `Cc1ccc(/N=C/N(C)/C=N/c2ccc(C)cc2C)c(C)c1` registered an IC50 of more than 46 µM.

In turn, `Br.COc1c2c(cc3c1OCO3)CCN(C)C2` registered an IC50 of more than 46 µM.

As for `O=S(=O)(O)O.[2H]C([2H])([2H])[C@H](N)Cc1ccccc1.[2H]C([2H])([2H])[C@H](N)Cc1ccccc1`, the IC50 was more than 46 µM.

`CC1CCC(C(C)C)C(OC(=O)c2ccccc2O)C1` (centres undefined): the IC50 is more than 46 µM.

`[O]=[Bi][O]C(=O)[O][Bi]=[O]` came in with an IC50 of more than 46 µM.

Consider `CCN(CC)C(=O)/C(C#N)=C/c1cc(O)c(O)c([N+](=O)[O-])c1`, for which the IC50 was more than 46 µM.

`CC(C)(C)NC(=O)[C@H]4CC[C@@H]3[C@]4(C)CC[C@H]1[C@H]3CC[C@H]2NC(=O)\C=C/[C@]12C` had an IC50 of more than 46 µM.

`NC(CSCC(=O)O)C(=O)O` (centres undefined) displayed an IC50 of more than 46 µM.

The molecule `CC(=O)OC(C)C[N+](C)(C)C.[Cl-]` (centres undefined) returned an IC50 of more than 46 µM.

As to `CO[C@@]1(NC(=O)CSCC#N)C(=O)N2C(C(=O)[O-])=C(CSc3nnnn3C)CS[C@@H]21.[Na+]`, the IC50 was more than 46 µM.

`O=C(N1C)N[C@](C1=O)([C@@]2=CC=CC=C2)CC` displayed an IC50 of more than 46 µM.

Consider `O=C(CCCN1CCC(n2c(=O)[nH]c3ccccc32)CC1)c1ccc(F)cc1`, for which the IC50 is more than 46 µM.

Turning to `O=C1NCN(c2ccccc2)C12CCN(CC1COc3ccccc3O1)CC2` (centres undefined), the IC50 was more than 46 µM.

In turn, `C[C@H]1COc2c(C3(N)CC3)c(F)cc3c(=O)c(C(=O)O)cn1c23` gave an IC50 of more than 46 µM.

On to `Nc1nc(NC2CC2)c2ncn([C@@H]3C=C[C@@H](CO)C3)c2n1`, for which the IC50 is more than 46 µM.

Molecule `Cn1c([N+](=O)[O-])cnc1COC(N)=O` yielded a half-maximal inhibitory concentration (IC50) of more than 46 µM.

In turn, `C[C@]12CCC(=O)C=C1CC[C@H]1[C@@H]3CC[C@](O)(C(=O)CO)[C@@]3(C)C[C@H](O)[C@@]12F` registered an IC50 of more than 46 µM.

`Nc1ccc(C(=O)NCC(=O)O)cc1` yielded an IC50 of more than 46 µM.

Regarding `c1ccc2[nH]c(-c3cscn3)nc2c1`, the IC50 was more than 46 µM.

The molecule `Nc1nc(=O)c2ncn(CCC(CO)CO)c2[nH]1` had an IC50 of more than 46 µM.

`Cl.NCCCC(N)(C(=O)O)C(F)F` (centres undefined) showed an IC50 of more than 46 µM.

Molecule `C=CCSSSCC=C` gave an IC50 of more than 46 µM.

For the molecule `CC[C@H](NC(C)C)[C@H](O)c1ccc(O)c2[nH]c(=O)ccc12`, the IC50 was more than 46 µM.

As to `C=C[C@H]1CN2CC[C@H]1C[C@H]2[C@H](O)c1ccnc2ccc(OC)cc12`, the IC50 is more than 46 µM.

Take `C=CCSCC1Nc2cc(Cl)c(S(N)(=O)=O)cc2S(=O)(=O)N1` (centres undefined): the IC50 is more than 46 µM.

For the molecule `O=C1CCC(=O)N1CO`, the IC50 is more than 46 µM.

As to `Cc1c(NC(C)C)c(=O)n(-c2ccccc2)n1C`, the IC50 was more than 46 µM.

`O=C(CCCCCCCCCCCCC1CCCC1)Nc1ccc(S(=O)(=O)c2ccc(NC(=O)CCCCCCCCCCCCC3CCCC3)cc2)cc1` had an IC50 of more than 46 µM.
